Where two headings read alike, the source gives them in different places. Bounds are passed on as bounds.

Here are results for 19 molecules from patent US10875855B2 (priority 2011, dated 2020).

For assay [1], the system named is influenza A virus (A/PR/8/34). Kind of assay: MDCK cytopathic effect (CPE) cell protection assay, ATP detection. It is filed as cell-based. For orientation: Damage to the host cells serves as the signal in cytopathic effect assays.
In assay [2] the test system is influenza A virus (A/PR/8/34). Nature of the assay: microbe, parasite or virus in culture. Format: cell-based.
Setting [3] is: Influenza A virus, PR/8, MDCK, 72 h, Table 1, MDCK cells, A/PR/8/34, 72 hours, 50% cell protection, mean all, class symbol, read-out: MDCK IC50.
Setting [4] is: Influenza A virus, PR/8, Table 1, mean all, class symbol, read-out: bDNA EC99.
[5] abbreviates: Influenza A virus, PR/8, Table 1, viral RNA 50% of control wells, mean all, class symbol, read-out: bDNA EC50.
[6] abbreviates: Table 1, mean all, class symbol.
[7] abbreviates: Table 1, MDCK cells, A/PR/8/34, 72 hours, 50% cell protection, mean all, class symbol, read-out: MDCK IC50.
Setting [8] is: Table 1, viral RNA 50% of control wells, mean all, class symbol, read-out: bDNA EC50.

As for `O=C(O)CC(Nc1nc(-c2c[nH]c3ncc(F)cc23)ncc1F)C12CC3CC(CC(C3)C1)C2` (racemic) [Compound 86, (+/−)-3-(1-Adamantyl)-3-[[5-fluoro-2-(5-fluoro-1H-pyrrolo[2,3-b]pyridin-3-yl)pyrimidin-4-yl]amino]propionic acid], the IC50 in assay [1] (setting [3]) was less than 300 nM. The EC99 in assay [2] (setting [4]) fell in the range of 0.3 to 3.3 µM. In assay [2] (setting [5]), the EC50 was less than 300 nM.
`O=C(O)CC(Nc1nc(-c2c[nH]c3ncc(F)cc23)ncc1F)C1(C(F)(F)F)CC1` (racemic) [Compound 93, (+/−)-3-((5-Fluoro-2-(5-fluoro-1H-pyrrolo[2,3-b]pyridin-3-yl)pyrimidin-4-yl)amino)-3-(1-(trifluoromethyl)cyclopropyl)propanoic acid]: in assay [1] (setting [3]), the IC50 lay within 300 to 3300 nM. Further, the concentration for an effect of 99% (EC99) in assay [2] (setting [4]) is more than 3.3 µM. Further, in assay [2] (setting [5]), the EC50 lay within 300 to 3300 nM.
On to `O=C(O)CC(Nc1nc(-c2c[nH]c3ncc(Cl)cc23)ncc1F)C12CC3CC(CC(C3)C1)C2` (racemic) [Compound 94, (+/−)-3-(1-Adamantyl)-3-[[2-(5-chloro-1H-pyrrolo[2,3-b]pyridin-3-yl)-5-fluoro-pyrimidin-4-yl]amino]propanoic acid], for which the IC50 in assay [1] (setting [3]) is less than 300 nM. Besides, the EC99 in assay [2] (setting [4]) was less than 0.3 µM. In addition, the EC50 in assay [2] (setting [5]) was less than 300 nM.
Regarding `O=C(O)CC(Nc1nc(-c2c[nH]c3ncc(F)cc23)ncc1F)C12CCC(CC1)C2` (racemic) [Compound 95, (+/−)-3-(Bicyclo[2.2.1]heptan-1-yl)-3-(5-fluoro-2-(5-fluoro-1H-pyrrolo[2,3-b]pyridin-3-yl)pyrimidin-4-ylamino)propanoic acid], the half-inhibitory concentration (IC50) in assay [1] (setting [3]) was less than 300 nM. In addition, in assay [2] (setting [4]), the EC99 was in the range of 0.3 to 3.3 µM. In addition, the EC50 in assay [2] (setting [5]) was less than 300 nM.
Take `CC(C)(C)C(Nc1nc(-c2c[nH]c3ncc(F)cc23)ncc1F)C1CC1C(=O)O` (single isomer, unassigned) [Compound 51, 2-(1-((5-fluoro-2-(5-fluoro-1H-pyrrolo[2,3-b]pyridin-3-yl)pyrimidin-4-yl)amino)-2,2-dimethylpropyl)cyclopropanecarboxylic acid]: in assay [1] (setting [3]), the IC50 was less than 300 nM. The EC50 in assay [2] (setting [5]) is less than 300 nM. For the same molecule, in assay [2] (setting [6]), the “bDNA EC99 (uM)” value is “C (EC99 (mean all)>3.3 μM)”.
For `CC(C)(C)C(Nc1nc(-c2c[nH]c3ncc(F)cc23)ncc1F)C1CC1C(=O)O` (single isomer, unassigned) [Compound 52, 2-(1-((5-fluoro-2-(5-fluoro-1H-pyrrolo[2,3-b]pyridin-3-yl)pyrimidin-4-yl)amino)-2,2-dimethylpropyl)cyclopropanecarboxylic acid], the IC50 in assay [1] (setting [7]) was less than 300 nM. In addition, the “bDNA EC99 (uM)” value in assay [2] (setting [6]) is on record as “B (0.3 μM≤EC99 (mean all)≤3.3 μM)”. Also, in assay [2] (setting [8]), the EC50 was less than 300 nM.
Turning to `CC(C)(C)[C@H](CC(=O)O)Nc1nc(-c2c[nH]c3ncc(Cl)cc23)ncc1F` [Compound 3, (S)-3-((2-(5-chloro-1H-pyrrolo[2,3-b]pyridin-3-yl)-5-fluoropyrimidin-4-yl)amino)-4,4-dimethylpentanoic acid], the IC50 in assay [1] (setting [3]) fell in the range of 300 to 3300 nM. In addition, the EC99 in assay [2] (setting [4]) was more than 3.3 µM. Moreover, the EC50 in assay [2] (setting [5]) was 300 to 3300 nM.
As to `CC(C)(C)[C@H](CC(=O)O)Nc1nc(-c2c[nH]c3ncc(F)cc23)ncc1F` [Compound 4, (S)-3-((5-fluoro-2-(5-fluoro-1H-pyrrolo[2,3-b]pyridin-3-yl)pyrimidin-4-yl)amino)-4,4-dimethylpentanoic acid], the IC50 in assay [1] (setting [3]) was more than 3300 nM. Also, the EC99 in assay [2] (setting [4]) was more than 3.3 µM. For the same molecule, the EC50 in assay [2] (setting [5]) is more than 3300 nM.
Turning to `CC(C)(C)[C@@H](CC(=O)O)Nc1nc(-c2n[nH]c3ncc(F)cc23)ncc1F` [Compound 5, (R)-3-((5-fluoro-2-(5-fluoro-1H-pyrazolo[3,4-b]pyridin-3-yl)pyrimidin-4-yl)amino)-4,4-dimethylpentanoic acid], the IC50 in assay [1] (setting [3]) was less than 300 nM. Also, the EC99 in assay [2] (setting [4]) is less than 0.3 µM. Also, the EC50 in assay [2] (setting [5]) is less than 300 nM.
Consider `CC(C)(C)[C@@H](CC(=O)O)Nc1nc(-c2n[nH]c3ncc(F)cc23)c(F)cc1F` [Compound 6, (R)-3-((3,5-difluoro-6-(5-fluoro-1H-pyrazolo[3,4-b]pyridin-3-yl)pyridin-2-yl)amino)-4,4-dimethylpentanoic acid], for which the IC50 in assay [1] (setting [3]) was less than 300 nM; in assay [1] (Influenza A virus, PR/8, MDCK, exemplary data, MDCK cell protection, read-out: IC50) it was 4 nM. Moreover, the EC99 in assay [2] (setting [4]) was less than 0.3 µM; in assay [2] (exemplary data, bDNA) it was 0.082 µM. Moreover, the 50% effective concentration (EC50) was less than 300 nM in assay [2] (setting [5]) and 15 nM in assay [2] (Influenza A virus, PR/8, exemplary data, bDNA, read-out: EC50).
For `CC(C)(C)[C@@H](CC(=O)O)Nc1nc(-c2c[nH]c3ncc(F)cc23)c(C#N)cc1F` [Compound 7, (R)-3-(5-cyano-3-fluoro-6-(5-fluoro-1H-pyrrolo[2,3-b]pyridin-3-yl)pyridin-2-ylamino)-4,4-dimethylpentanoic acid], the IC50 in assay [1] (setting [3]) was less than 300 nM. In assay [2] (setting [4]), the EC99 is less than 0.3 µM. The EC50 in assay [2] (setting [5]) is less than 300 nM.
Regarding `CC1([C@@H](CC(=O)O)Nc2nc(-c3c[nH]c4ncc(F)cc34)c(C#N)cc2F)CCCC1` [Compound 8, (R)-3-(5-cyano-3-fluoro-6-(5-fluoro-1H-pyrrolo[2,3-b]pyridin-3-yl)pyridin-2-ylamino)-3-(1-methylcyclopentyl)propanoic acid], the IC50 in assay [1] (setting [7]) was less than 300 nM. The EC50 in assay [2] (setting [8]) was less than 300 nM.
`CC(C)(C)[C@@H](CS(=O)(=O)O)Nc1nc(-c2c[nH]c3ncc(Cl)cc23)ncc1F` [Compound 10, (S)-2-((2-(5-chloro-1H-pyrrolo[2,3-b]pyridin-3-yl)-5-fluoropyrimidin-4-yl)amino)-3,3-dimethylbutane-1-sulfonic acid]: the IC50 in assay [1] (setting [3]) is less than 300 nM. In addition, the EC99 in assay [2] (setting [4]) was less than 0.3 µM. Also, in assay [2] (setting [5]), the EC50 was less than 300 nM.
With `CC(C)(C)[C@@H](CS(=O)(=O)O)Nc1nc(-c2c[nH]c3ncc(F)cc23)ncc1F` [Compound 11, (S)-2-(5-fluoro-2-(5-fluoro-1H-pyrrolo[2,3-b]pyridin-3-yl)pyrimidin-4-ylamino)-3,3-dimethylbutane-1-sulfonic acid], the IC50 in assay [1] (setting [3]) was less than 300 nM. For the same molecule, the EC99 in assay [2] (setting [4]) was less than 0.3 µM. Also, the EC50 in assay [2] (setting [5]) is less than 300 nM.
`CC1(C(CC(=O)O)Nc2nc(-c3c[nH]c4ncc(F)cc34)c(C#N)cc2F)CCCC1` (centres unmarked) [Compound 13]: the IC50 in assay [1] (setting [3]) is less than 300 nM. The EC99 in assay [2] (setting [4]) was less than 0.3 µM. In assay [2] (setting [5]), the EC50 was less than 300 nM.
As to `CC1([C@@H](CC(=O)O)Nc2nc(-c3c[nH]c4ncc(F)cc34)ncc2F)CCCC1` [Compound 14], the IC50 in assay [1] (setting [3]) was less than 300 nM. Moreover, the EC99 in assay [2] (setting [4]) is less than 0.3 µM. Also, the concentration for a half-maximal effect (EC50) in assay [2] (setting [5]) is less than 300 nM.
As for `CC1([C@H](CC(=O)O)Nc2nc(-c3c[nH]c4ncc(F)cc34)ncc2F)CCCC1` [Compound 15], the IC50 in assay [1] (setting [3]) lay in the range of 300 to 3300 nM. Moreover, the EC99 in assay [2] (setting [4]) was more than 3.3 µM. Moreover, the EC50 in assay [2] (setting [5]) was 300 to 3300 nM.
On to `CCC(C)(C)C(CC(=O)O)Nc1nc(-c2c[nH]c3ncc(F)cc23)ncc1F` (centres unmarked) [Compound 16, 3-((5-fluoro-2-(5-fluoro-1H-pyrrolo[2,3-b]pyridin-3-yl)pyrimidin-4-yl)amino)-4,4-dimethylhexanoic acid], for which the IC50 in assay [1] (setting [3]) was less than 300 nM. For the same molecule, the EC50 in assay [2] (setting [5]) was less than 300 nM. Besides, the “bDNA EC99 (uM)” value in assay [2] (setting [6]) was “A (EC99 (mean all)<0.3 μM)”.
`CCC(C)(C)C(CC(=O)O)Nc1nc(-c2c[nH]c3ncc(F)cc23)ncc1F` (centres unmarked) [Compound 17, 3-((5-fluoro-2-(5-fluoro-1H-pyrrolo[2,3-b]pyridin-3-yl)pyrimidin-4-yl)amino)-4,4-dimethylhexanoic acid]: in assay [1] (setting [7]), the half-maximal inhibitory concentration (IC50) was in the range of 300 to 3300 nM. Further, the “bDNA EC99 (uM)” value in assay [2] (setting [6]) is “C (EC99 (mean all)>3.3 μM)”. In addition, the EC50 in assay [2] (setting [8]) was 300 to 3300 nM.

As usually defined, the IC50 is the midpoint of a concentration-inhibition curve. What is called EC99 is the concentration needed for an effect of 99%. As a reminder, the EC50 is the concentration needed to bring the measured effect to its halfway point.
